Measurements: the supplement of paper PMC11451515

Test system: NOMO1
Experiment: cell viability relative to DMSO control; higher = less cytotoxic
Conditions: 48 h
How it was run: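 Cells were incubated for 48 h at 37°C before CellTiter-Glo One luminescence was read. The cells were NOMO1 or SEM (500 cells/well) or P12-Ichikawa (1000 cells/well) leukemia cells, adapted for at least four passages in each medium and seeded in 1536-well plates (5 μl). Dosing used library compounds in DMSO applied by pin over 11 threefold points, 47 μM to 0.79 nM. Viability is the per-plate percentage of DMSO wells, with cell-free wells as background.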

[1] = HPLM + 10% dialyzed FBS, 0.000781 µM
[2] = HPLM + 10% dialyzed FBS, 0.00234 µM
[3] = HPLM + 10% dialyzed FBS, 0.00702 µM
[4] = HPLM + 10% dialyzed FBS, 0.0211 µM
[5] = HPLM + 10% dialyzed FBS, 0.0632 µM
[6] = HPLM + 10% dialyzed FBS, 0.19 µM
[7] = HPLM + 10% dialyzed FBS, 0.569 µM
[8] = HPLM + 10% dialyzed FBS, 1.71 µM
[9] = HPLM + 10% dialyzed FBS, 5.12 µM
[10] = HPLM + 10% dialyzed FBS, 15.4 µM
[11] = HPLM + 10% dialyzed FBS, 46.1 µM
[12] = RPMI 5 mM glucose + 10% FBS, 0.000781 µM
[13] = RPMI 5 mM glucose + 10% FBS, 0.00234 µM
[14] = RPMI 5 mM glucose + 10% FBS, 0.00702 µM
[15] = RPMI 5 mM glucose + 10% FBS, 0.0211 µM
[16] = RPMI 5 mM glucose + 10% FBS, 0.0632 µM
[17] = RPMI 5 mM glucose + 10% FBS, 0.19 µM
[18] = RPMI 5 mM glucose + 10% FBS, 0.569 µM
[19] = RPMI 5 mM glucose + 10% FBS, 1.71 µM
[20] = RPMI 5 mM glucose + 10% FBS, 5.12 µM
[21] = RPMI 5 mM glucose + 10% FBS, 15.4 µM
[22] = RPMI 5 mM glucose + 10% FBS, 46.1 µM
[23] = RPMI 5 mM glucose + 10% dialyzed FBS, 0.000781 µM
[24] = RPMI 5 mM glucose + 10% dialyzed FBS, 0.00234 µM
[25] = RPMI 5 mM glucose + 10% dialyzed FBS, 0.00702 µM
[26] = RPMI 5 mM glucose + 10% dialyzed FBS, 0.0211 µM
[27] = RPMI 5 mM glucose + 10% dialyzed FBS, 0.0632 µM
[28] = RPMI 5 mM glucose + 10% dialyzed FBS, 0.19 µM
[29] = RPMI 5 mM glucose + 10% dialyzed FBS, 0.569 µM
[30] = RPMI 5 mM glucose + 10% dialyzed FBS, 1.71 µM
[31] = RPMI 5 mM glucose + 10% dialyzed FBS, 5.12 µM
[32] = RPMI 5 mM glucose + 10% dialyzed FBS, 15.4 µM
[33] = RPMI 5 mM glucose + 10% dialyzed FBS, 46.1 µM

SMILES | cell viability [1] [%] | cell viability [2] [%] | cell viability [3] [%] | cell viability [4] [%] | cell viability [5] [%] | cell viability [6] [%] | cell viability [7] [%] | cell viability [8] [%] | cell viability [9] [%] | cell viability [10] [%] | cell viability [11] [%] | cell viability [12] [%] | cell viability [13] [%] | cell viability [14] [%] | cell viability [15] [%] | cell viability [16] [%] | cell viability [17] [%] | cell viability [18] [%] | cell viability [19] [%] | cell viability [20] [%] | cell viability [21] [%] | cell viability [22] [%] | cell viability [23] [%] | cell viability [24] [%] | cell viability [25] [%] | cell viability [26] [%] | cell viability [27] [%] | cell viability [28] [%] | cell viability [29] [%] | cell viability [30] [%] | cell viability [31] [%] | cell viability [32] [%] | cell viability [33] [%]
COCCCC/C(=N\OCCN)c1ccc(C(F)(F)F)cc1 | 85.7 | 80.4 | 79.2 | 85.2 | 94.8 | 91.8 | 78.6 | 64.2 | 81.3 | 48.9 | 3.91 | 84.2 | 82 | 80.9 | 84.5 | 80.7 | 79.5 | 82 | 83 | 72.5 | 72.7 | 25.5 | 72.7 | 80.1 | 83.5 | 88.8 | 90.1 | 73.1 | 75.9 | 80 | 77.1 | 77.1 | 28.7
OC1CCC(CC1)N2\C=N/C3=C(C2=N)C(=C([N]3CC4=CC=CC=C4)C5=CC=CC=C5)C6=CC=CC=C6 (stereo unspecified) | 115 | 133 | 121 | 144 | 142 | 130 | 130 | 93.8 | 81 | 74.9 | 9.01 |  |  |  |  |  |  |  |  |  |  |  |  |  |  |  |  |  |  |  |  |  | 
NC(=O)N1CCC(CC(=O)N2CCC([C@H]3c4ncc(Br)cc4CCc4cc(Cl)cc(Br)c43)CC2)CC1 | 113 | 109 | 126 | 118 | 117 | 110 | 114 | 122 | 90 | 90 | 53.4 | 107 | 112 | 109 | 98.5 | 104 | 103 | 99.2 | 101 | 86.2 | 80.2 | 54.1 | 109 | 113 | 123 | 112 | 118 | 112 | 94 | 104 | 95.7 | 87.6 | 69.4
CC(C)C[C@H](CC(=O)O)C(=O)N[C@@H](Cc1c[nH]c2ccccc12)C(=O)N[C@@H](C)c1ccccc1 | 122 | 114 | 124 | 112 | 109 | 123 | 104 | 116 | 95.9 | 60.9 | 37.3 | 91.3 | 93.9 | 105 | 103 | 109 | 109 | 107 | 107 | 105 | 74.8 | 29.5 | 104 | 115 | 105 | 105 | 114 | 114 | 116 | 127 | 113 | 113 | 56.6
CN(C)CCc1c[nH]c2ccc(Cn3cncn3)cc12 | 93.7 | 103 | 105 | 102 | 115 | 77.6 | 86.2 | 18.3 | 9.15 | 6.34 | 3.57 | 84.7 | 91.7 | 89.8 | 87.1 | 91.5 | 65.3 | 82.4 | 17.4 | 7.32 | 5.18 | 3.92 | 94.9 | 93.5 | 98.1 | 106 | 92.8 | 78.8 | 86.1 | 32 | 10.7 | 5.4 | 4.44
C[C@H](NC(=O)[C@@H](O)c1cc(F)cc(F)c1)C(=O)N[C@@H]1C(=O)N(C)c2ccccc2-c2ccccc21 |  |  |  |  |  |  |  |  |  |  |  | 103 | 115 | 106 | 122 | 109 | 114 | 104 | 86.6 | 97.7 | 101 | 97.3 | 119 | 116 | 119 | 113 | 113 | 105 | 101 | 113 | 102 | 97.3 | 84.5
Cc1nnc(C(=O)NC(C)(C)c2nc(C(=O)NCc3ccc(F)cc3)c(O)c(=O)n2C)o1 | 121 | 112 | 119 | 118 | 104 | 103 | 106 | 101 | 95.6 | 97.9 | 96.6 | 87.6 | 99.4 | 96.8 | 92.4 | 96.7 | 99.1 | 100 | 91.2 | 86.5 | 92.2 | 93.3 | 93.7 | 100 | 107 | 93.1 | 109 | 96.6 | 95 | 96.8 | 93.7 | 104 | 94.5
CN1CCC(CNc2ccc3ncc(-c4cccc(OC(F)(F)F)c4)n3n2)CC1 | 101 | 106 | 112 | 113 | 97.8 | 125 | 114 | 104 | 91 | 70.7 | 5.88 | 87.2 | 83.3 | 85.2 | 99.5 | 89.4 | 91.4 | 97.9 | 85.8 | 85.6 | 73.5 | 5.17 | 116 | 93.1 | 97.1 | 88.2 | 99.4 | 97.5 | 104 | 94.9 | 79.3 | 68.5 | 4.98
